The values below come from US7829114B2, “Capsules containing aqueous fill compositions stabilized with derivatized cyclodextrin” (CyDex Pharmaceuticals, Inc., priority 2002, dated 2010).

What all share (type): physicochemical
Series [1] is described as follows: Shell stability on exposure to aqueous fill composition (half-shell integrity test, H.S.I.T.). The protocol: The same tests were performed on gelatin capsules obtained from CARDINAL HEALTH.
It has been discovered that PEG has a beneficial effect upon the shell-stabilizing property of an aqueous fill composition comprising SAE-CD. FIG. 6a depicts a ternary graph correlating the concentration of SAE-CD, water and PEG in a fill composition to the H.S.I.T. rating of a soft shell capsule exposed to the fill composition. Aqueous fill solutions comprising differing amounts of PEG, SAE-CD and water were prepared. The stability tests were conducted as described below. The HFC soft gelatin capsules described herein were used. For a composition comprising 40% wt. SBE-CD, 40% wt. water and 20% wt. PEG, the shell was stable for greater than 5 days. For a composition comprising 35% wt. SBE-CD, 35% wt. water and 30% wt. PEG, the shell was stable for greater than 5 days. For a composition comprising 18% wt. SBE-CD, 42% wt. water and 40% wt. PEG, the shell was stable for greater than 5 days. Under each of the conditions tested, the control sample excluded SAE-CD, i.e., containing only water and PEG at the indicated concentration, and failed within 24 hours. About the same results were obtained for the HFB (FIG. 6b), LFB (FIG. 7a) and LFC (FIG. 7b) soft gelatin capsules. Increasing the SAE-CD concentration to values higher than those indicated further increases the shelf-life of the shell or provides an HSIT rating of at least 4. Stabilized aqueous fill composition-containing capsule formulations can be achieved with each capsule if the following fill compositions are used.

Series [2] can be described thus: H.S.I.T. on starch capsule. Conditions: for content in fill composition for an HSIT rating of at least 3: SAE-CD, PVP and water fill, VEGAGEL hard shell capsule. From the text:
FIG. 3 depicts a chart of the relationship between concentration of SBE cyclodextrin and H.S.I.T. (HALF-SHELL integrity test) rating for HGC (hard gelatin capsule From […]), HGS (hard gelatin capsule from SHIONOGI), HPC (hard hydroxypropyl methylcellulose shell from […]), and HPS (hard hydroxypropyl methylcellulose shell from SHIONOGI), and SSS (soft starch shell […]). The stability obtained was dependent upon the composition of the capsule gel.
FIGS. 10a-10i depict ternary graphs correlating the concentration of SAE-CD, water and PVP in a fill composition to the H.S.I.T. rating of a soft shell capsule exposed to the fill composition. Aqueous fill solutions comprising differing amounts of PVP, SAE-CD and water were prepared. The stability tests were conducted as described below. The capsules described herein were used: SHIONOGI HGC (hard gelatin capsule) (FIG. 10A), […] HPMC hard shell capsule (FIG. 10b), SHIONOGI HPMC hard shell capsule (FIG. 10C), […] HGC (FIG. 10D), VEGAGEL hard shell capsule (FIG. 10E), hydrophilic fill-grade CARDINAL SGC (soft gelatin capsule) (FIG. 10f), lipophilic fill-grade CARDINAL SGC (FIG. 10g), hydrophilic fill-grade BANNER SGC (FIG. 10h), and lipophilic fill-grade BANNER SGC (FIG. 10i). No other shell-stabilizing material(s) was (were) included in the fill compositions evaluated. The results varied according to the capsule used. Stabilized aqueous fill composition-containing capsule formulations can be achieved with each capsule if one or more of the following fill compositions detailed below are used. • 1. […]

Series [3] is described as follows: Shell stability on exposure to aqueous fill composition (half-shell integrity test, H.S.I.T.). The note with it: SAE-CD, PVP and water fill; hydrophilic fill-grade CARDINAL SGC.
[4] abbreviates: 40% wt. cyclodextrin derivative in water, HFC.
[5] abbreviates: 50% wt. cyclodextrin derivative in water, HFC.
Setting [6] is: 55% wt. cyclodextrin derivative in water, HFC.
The mark [7] stands for this setting: 60% wt. cyclodextrin derivative in water, HFC.

Like-named read-outs stand apart in the source and are kept apart here. A value given as a limit tells only on which side of the number the result lay.

As to `O` [Water], the “content in fill composition for a stabilized capsule formulation” value in series [1] (SAE-CD, PEG and water fill, HFC) was “≦50%”. Besides, the “content in fill composition for an HSIT rating of at least 3” value in series [2] was “≦64%”; in series [3] it was “≦54%”.
In the case of sulfobutyl ether cyclodextrin [SAE-CD], the “content in fill composition for a stabilized capsule formulation” value in series [1] is “≧18%”. Further, the “time the shell was stable” value is reported as “greater than 5 days” in series [1] (18% wt. SBE-CD, 42% wt. water and 40% wt. PEG, HFC); “greater than 5 days” in series [1] (35% wt. SBE-CD, 35% wt. water and 30% wt. PEG, HFC); “greater than 5 days” in series [1] (40% wt. SBE-CD, 40% wt. water and 20% wt. PEG, HFC). Besides, the “Increase in shell size” value in series [1] (setting [4]) is on record as 3 × original; in series [1] (setting [5]), 2 × original; in series [1] (setting [6]), “No change”; in series [1] (setting [7]), “no change”. Also, the Observations entry in series [1] (setting [4]) is reported as “deformed”; in series [1] (setting [5]) it was “shape intact”; in series [1] (setting [6]), “No deformities”; in series [1] (setting [7]), “no change”. Further, the Time for failure in series [1] (setting [4]) is 4 days; in series [1] (setting [5]), 7 days; in series [1] (setting [6]), “≧14 days”; in series [1] (setting [7]) it was over 21 days. The “content in fill composition for an HSIT rating of at least 3” value in series [2] and in series [3] was “≧6%” in each case. For the same molecule, in series [2] (SBE concentration of about ≧30% wt., soft starch capsules, FIG. 3), the “stability provided to capsules” value was “at least a one-week stability”.
